Source: patent US8883798B2, “Pyrimidine compounds inhibiting the formation of nitric oxide and prostaglandin E2, method of production thereof and use thereof” (Ustav Organicke Chemie a Biochemie Akademie Ved CR, V.V.I., priority 2011, dated 2014)

Key:
[1] = tested on: production of nitric oxide (NO); assay: Production of nitric oxide (NO) in cultures of mouse peritoneal cells stimulated with IFN-γ plus LPS (Griess reagent); assay type: cell-based, mice; conditions: substance 50 μmol·l^−1, IFN-g plus LPS, 24 h
Description: (§1) Under in vitro conditions, the effect of the pyrimidine compounds according to this invention was tested in terms of the production of nitric oxide (NO) and in terms of the production of prostaglandin E2 (PGE2) in cultures of the peritoneal cells of mice.
NO is a product of the metabolism of L-arginine, quickly changes to […], which are then measured using the Griess reagent system. Under normal conditions, the production of NO is practically zero. It only occurs after some stimulation. In these experiments, interferon-gamma (IFN-γ) and bacterial lipopolysacharide (LPS) were used as stimulators. The values of NO induced in this way fluctuated in the individual experiments in a range from 52 to 89 μmol·l^−1; for the purposes of comparison between the experiments they were considered as 100%. The production of NO after the application of the substances was expressed in percentage with respect to the control values. (The lower the value, the higher the inhibition effect of the substances on NO production.) IC50 are the concentrations of the substances reducing the production of NO by 50% with respect to the controls.
(§2) Experiments were performed on mice peritoneal cells C57BL/6 (Charles River, Germany—AnLabu).
(§3) NO production was induced using IFN-g (5000 pg/mL) plus LPS (100 pg/mL); evaluated (Griess reagent) after 24 h of the cell cultivation (2×10^6/mL). PGE2 was induced using LPS (10 ng/mL); evaluated (ELISA) following 6 h cultivation of cells (3×10^6/mL). Cell longevity was evaluated using WST-1 (tetrazolium salt), following 24 h cultivation of cells (1×10^6/mL). The values mentioned in the table represent the effects of the substances tested in a concentration of 50 μmol·l^−1.

[2] = tested on: production of prostaglandin E2 (PGE2); assay: Production of prostaglandin E2 (PGE2) in cultures of mouse peritoneal cells stimulated with LPS (ELISA kit); assay type: cell-based, mice; conditions: for Production of prostaglandins IC50 (μmol · 1^−1) average value and range of values: Table 3B, 6 h
Description: as §1
The influence on the production of prostaglandin E2 (PGE2) in vitro caused by the activity of the pyrimidine compounds according to the submitted invention was determined in cultures of the peritoneal cells of mice using a commercial kit (R&DSystems). The concentrations of PGE2 after lipopolysacharide (LPS) stimulation reached in the individual experiments values in a range of 22 to 91 ng·ml^−1 and for the purposes of comparison between the experiments were considered as 100%. The influence of the substances on the production of PGE2 was evaluated in percentage with respect to the control values.
as §2, §3

peritoneal cells of mice = assay: Cell viability of mouse peritoneal cells (WST-1 kit); assay type: cell-based; conditions: substance 50 μmol·l^−1, 24 h; for Cell viabilities in % of the controls: Table 3B; for Cell viability in % of the controls: Table 3A
Description: Cell viability was determined in the standard way using a WST-1 kit (Roche). The values of the viability of the control cells were for the purposes of comparison between experiments considered as 100%. The influence of the substances on the longevity of the cells was evaluated in percentage with respect to the control values.
as §2, §3

| Compound | Production of nitric oxide in % of the controls ([1]; Table 3A) | Cell viability in % of the controls (peritoneal cells of mice) | also measured |
| --- | --- | --- | --- |
| CCCCc1c(-c2cccs2)nc(N)nc1-c1cccs1 [Substance 92] | – | – | Production of nitric oxide in % of the controls ([1]; Table 3B): 46.09 ± 7.92; n = 6 % of the controls; Production of prostaglandins IC50 (μmol · 1^−1) average value and range of values [2]: 29.52 ± 11.77; n = 4 μmol · 1^−1; Cell viabilities in % of the controls (peritoneal cells of mice): 102.36 ± 6.45; n = 8 % of the controls |
| CCCCc1c(-c2ccccc2)nc(N)nc1-c1cccc2ccccc12 [Substance 133] | – | – | Production of nitric oxide in % of the controls ([1]; Table 3B): 49.60 ± 9.26; n = 4 % of the controls; Production of prostaglandins IC50 (μmol · 1^−1) average value and range of values [2]: 61.74 ± 17.48; n = 2 μmol · 1^−1; Cell viabilities in % of the controls (peritoneal cells of mice): 110.75 ± 3.69; n = 4 % of the controls |
| CCCCc1c(Cl)nc(N)nc1-c1ccccc1 [Substance 41] | 47.82 ± 6.08 % of the controls | 108.24 ± 7.40 % of the controls | – |
| CCCCc1c(Cl)nc(N)nc1-c1ccsc1 [Substance 42] | 63.18 ± 0.89 % of the controls | 157.36 ± 5.16 % of the controls | – |
| Nc1nc(I)c(Cc2ccccc2)c(I)n1 [Substance 38] | 34.80 ± 0.31 % of the controls | 78.60 ± 5.33 % of the controls | – |
| Cc1c(Cl)nc(N)nc1Cl [Substance 25] | 47.30 ± 13.48 % of the controls | 98.55 ± 17.60 % of the controls | – |
| CCCCCCc1c(Cl)nc(NC=O)nc1Cl [Substance 55] | 14.77 ± 9.19 % of the controls | 144.97 ± 18.27 % of the controls | – |
| CC(C)c1c(Cl)nc(N)nc1Cl [Substance 29] | 36.97 ± 8.22 % of the controls | 91.18 ± 9.90 % of the controls | – |
| CCC(C)c1c(Cl)nc(N)nc1Cl (stereo not drawn) [Substance 30] | 47.48 ± 6.22 % of the controls | 111.90 ± 9.63 % of the controls | – |
| CCCCc1c(Cl)nc(N(C)C)nc1Cl [Substance 63] | 64.97 ± 2.92 % of the controls | – | – |
| CCCCc1c(-c2ccncc2)nc(N)nc1-c1cccnc1 [Substance 84] | – | – | Production of nitric oxide in % of the controls ([1]; Table 3B): 47.55 ± 7.12; n = 6 % of the controls; Cell viabilities in % of the controls (peritoneal cells of mice): 109.54 ± 4.48; n = 8 % of the controls |
| CCCCc1c(-c2cccnc2)nc(N)nc1-c1cccnc1 [Substance 46] | 70.00 ± 4.82 % of the controls | 107.08 ± 2.94 % of the controls | – |
| Nc1nc(Cl)c(-c2ccccc2)c(Cl)n1 [Substance 31] | 36.11 ± 8.38 % of the controls | 82.53 ± 8.73 % of the controls | – |
| Nc1nc(Cl)c(Cc2ccccc2)c(I)n1 [Substance 39] | 18.30 ± 7.66 % of the controls | 67.81 ± 3.08 % of the controls | – |
| Nc1nc(Br)c(Cc2ccccc2)c(Br)n1 [Substance 40] | 32.45 ± 10.99 % of the controls | 90.18 ± 3.75 % of the controls | – |
| CCCCc1c(Cl)nc(C)nc1Cl [Substance 62] | 41.21 ± 5.50 % of the controls | 80.93 ± 0.84 % of the controls | – |

| Compound | Production of nitric oxide in % of the controls ([1]; Table 3A) | Cell viability in % of the controls (peritoneal cells of mice) | also measured |
| --- | --- | --- | --- |
| CCCCc1c(Cl)nc(N)nc1-c1cccnc1 [Substance 43] | 58.68 ± 0.92 % of the controls | 166.77 ± 22.51 % of the controls | – |
| CCCCc1c(-c2ccccc2)nc(N)nc1-c1ccccc1 [Substance 45] | 73.29 ± 1.40 % of the controls | 297.33 ± 23.17 % of the controls | – |
| CCCCc1c(Cl)nc(N)nc1-c1cc2ccccc2o1 [Substance 44] | 62.62 ± 0.19 % of the controls | 147.78 ± 5.90 % of the controls | – |
| CCCCc1c(-c2cc3ccccc3o2)nc(N)nc1-c1cc2ccccc2o1 [Substance 47] | 41.23 ± 18.49 % of the controls | 75.01 ± 13.63 % of the controls | – |
| CCCCc1c(-c2cccnc2)nc(N)nc1-c1cccnc1 [Substance 81] | – | – | Production of nitric oxide in % of the controls ([1]; Table 3B): 50.07 ± 3.04; n = 6 % of the controls; Cell viabilities in % of the controls (peritoneal cells of mice): 82.21 ± 7.34; n = 8 % of the controls |
| C=C(Cl)Cc1c(Cl)nc(NC=O)nc1Cl [Substance 60] | 0.13 ± 0.13 % of the controls | 37.13 ± 1.27 % of the controls | – |
| CCC(C)c1c(Cl)nc(N)nc1I (stereo not drawn) [Substance 37] | 6.67 ± 5.15 % of the controls | 49.11 ± 3.29 % of the controls | – |
| CCc1c(Cl)nc(N)nc1Cl [Substance 26] | 48.59 ± 9.49 % of the controls | 91.53 ± 10.78 % of the controls | – |
| CCC(C)c1c(I)nc(N)nc1I (stereo not drawn) [Substance 36] | 2.80 ± 1.28 % of the controls | – | – |
| C#CCc1c(Cl)nc(NC=O)nc1Cl [Substance 58] | 0.69 ± 0.26 % of the controls | – | Production of prostaglandins in % of the controls ([2]; Table 3A, substance 50 μmol·l^−1, 6 h): 12.30 ± 0.54 % of the controls |
| CCCCCCc1c(Cl)nc(N=CN(C)C)nc1Cl [Substance 22] | 61.34 ± 3.91 % of the controls | – | – |
| CCCCc1c(Cl)ncnc1Cl [Substance 61] | 27.38 ± 1.88 % of the controls | 73.73 ± 0.99 % of the controls | – |
| CCCCc1c(Cl)nc(N)nc1-c1cccs1 [Substance 93] | – | – | Production of prostaglandins IC50 (μmol · 1^−1) average value and range of values [2]: 11.47 ± 2.73; n = 4 μmol · 1^−1; Cell viabilities in % of the controls (peritoneal cells of mice): 74.47 ± 0.81; n = 4 % of the controls |
| CCCCc1c(-c2ccncc2)nc(N)nc1-c1ccc(OC)cc1 [Substance 83] | – | – | Production of nitric oxide in % of the controls ([1]; Table 3B): 63.81 ± 5.32; n = 6 % of the controls; Cell viabilities in % of the controls (peritoneal cells of mice): 95.41 ± 4.70; n = 8 % of the controls |
| C#CCc1c(Cl)nc(N)nc1Cl [Substance 33] | 35.98 ± 14.08 % of the controls | 90.58 ± 17.05 % of the controls | – |
| CCCCc1c(Cl)nc(N)nc1-c1ccncc1 [Substance 85] | – | – | Production of nitric oxide in % of the controls ([1]; Table 3B): 49.34 ± 4.20; n = 4 % of the controls; Cell viabilities in % of the controls (peritoneal cells of mice): 87.62 ± 6.58; n = 4 % of the controls |
